Test results: US20230339970A1, “CASEIN KINASE 1 DELTA MODULATORS” (priority 2020, published 2023)

How the values were obtained:
[1] = molecular target: T1, human CSNK1D (Homo sapiens, UniProt P48730); experiment: Whole Cell nBRET CSNK1D Binding Assay; details: living CHO cells stably expressing human CSNK1D tagged with nanoluciferase; NanoBret tracer 130 nM; 2 hours at 37 C
T1 construct: expressed in transfected cells

[2] = molecular target: T2, human recombinant GST cleaved CSNK1D (Homo sapiens, UniProt P48730); experiment: Purified Enzyme Assay (ADP-Glo CSNK1D Kinase Assay); assay type: biochemical; details: 2 nM CSNK1D; peptide substrate 150 μM; ATP 20 μM; 45 minutes at room temperature
T2 construct: GST (cleaved yes); purchased University of Dundee clone DU 19064
Procedure, shortened: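 GST-cleaved human recombinant CSNK1D phosphorylates peptide PLSRTL-pS-VASLPGL with ATP; compounds added in dose-response, 45 min at room temperature. ADP formed measured by ADP-Glo luminescence and converted to percent activity.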

T2 sequence (P48730 whole entry): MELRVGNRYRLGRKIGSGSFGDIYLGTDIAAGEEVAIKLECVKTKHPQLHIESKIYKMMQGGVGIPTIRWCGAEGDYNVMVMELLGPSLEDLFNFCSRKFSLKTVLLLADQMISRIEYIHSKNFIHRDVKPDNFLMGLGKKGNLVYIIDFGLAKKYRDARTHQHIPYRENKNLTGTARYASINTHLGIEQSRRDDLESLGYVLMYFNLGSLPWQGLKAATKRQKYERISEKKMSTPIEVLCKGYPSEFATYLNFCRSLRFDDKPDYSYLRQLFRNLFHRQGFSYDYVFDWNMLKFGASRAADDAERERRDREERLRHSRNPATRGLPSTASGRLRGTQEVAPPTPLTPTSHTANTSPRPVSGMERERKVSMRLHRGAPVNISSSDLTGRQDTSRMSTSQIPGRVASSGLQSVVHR
T1 sequence (P48730 whole entry): as above

IC50 [1] | IC50 [2] | Compound
71 nM | 6 nM | Fc1ccc(-c2nn3c(c2-c2c(F)cnc4[nH]ncc24)CC2(C3)CC2(F)F)nc1 (single isomer, unassigned) [Example 258, (*S)-2,2-Difluoro-3′-(5-fluoro-1H-pyrazolo[3,4-b]pyridin-4-yl)-2′-(5-fluoropyridin-2-yl)-4′H,6′H-spiro[cyclopropane-1,5′-pyrrolo[1,2-b]pyrazole]]
4340 nM | 184 nM | CC1CCOc2c(-c3ccn4nccc4c3)c(-c3ccc(F)cn3)nn21 (stereo not shown) [Example 446, 2-(5-Fluoropyridin-2-yl)-7-methyl-3-(pyrazolo[1,5-a]pyridin-5-yl)-6,7-dihydro-5H-pyrazolo[5,1-b][1,3]oxazine]
6 nM | 2 nM | Cc1cc(-c2c(-c3ccc(F)cc3)nn3c2CC2(CC2)C3)c2cn[nH]c2n1 [Example 248, 2-(4-Fluorophenyl)-3-(6-methyl-1H-pyrazolo[3,4-b]pyridin-4-yl)spiro[4,6-dihydropyrrolo[1,2-b]pyrazole-5,1′-cyclopropane]]
195 nM | 8 nM | Fc1ccc(-c2nn3c(c2-c2ccnc4[nH]ncc24)COC2(CC2)C3)nc1 [Example 432, 2-(5-Fluoro-2-pyridyl)-3-(1H-pyrazolo[3,4-b]pyridin-4-yl)spiro[4,7-dihydropyrazolo[5,1-c][1,4]oxazine-6,1′-cyclopropane]]
434 nM | 41 nM | Cc1cc(-c2c(-c3ccc(F)cn3)nn3c2C[C@H]2C[C@H]23)c2cn[nH]c2n1 [Example 27, (4aR,5aR)-2-(5-Fluoropyridin-2-yl)-3-(6-methyl-1H-pyrazolo[3,4-b]pyridin-4-yl)-4,4a,5,5a-tetrahydrocyclopropa[4,5]pyrrolo[1,2-b]pyrazole]
70 nM | 7 nM | Cc1nc2[nH]nc(C)c2c(-c2c(-c3ccc(F)cn3)nn3c2CC[C@H]2[C@@H]3C2(F)F)c1F (single isomer, unassigned) [Example 360, (5a*S,6a*R)-6,6-Difluoro-3-(5-fluoro-3,6-dimethyl-1H-pyrazolo[3,4-b]pyridin-4-yl)-2-(5-fluoropyridin-2-yl)-5,5a,6,6a-tetrahydro-4H-cyclopropa[e]pyrazolo[1,5-a]pyridine]
21 nM | 2 nM | [2H]C([2H])([2H])C1(C([2H])([2H])[2H])Cn2nc(-c3ccc(F)cn3)c(-c3ccnc(NC(=O)CC)c3)c2CO1 [Example 395, N-(4-(2-(5-Fluoropyridin-2-yl)-6,6-bis(methyl-d3)-6,7-dihydro-4H-pyrazolo[5,1-c][1,4]oxazin-3-yl)pyridin-2-yl)propionamide]
15 nM | 1 nM | [2H]C([2H])([2H])[C@]1(C#N)CCc2c(-c3ccnc4[nH]ncc34)c(-c3ccc(F)cn3)nn2C1 (single isomer, unassigned) [Example 323, *S-2-(5-Fluoropyridin-2-yl)-6-(methyl-d3)-3-(1H-pyrazolo[3,4-b]pyridin-4-yl)-4,5,6,7-tetrahydropyrazolo[1,5-a]pyridine-6-carbonitrile]
11 nM | 1 nM | C[C@]1(CF)CCc2c(-c3ccnc4[nH]ncc34)c(-c3ccc(F)cn3)nn2C1 (single isomer, unassigned) [Example 51, (*)-4-[6-(Fluoromethyl)-2-(5-fluoro-2-pyridyl)-6-methyl-5,7-dihydro-4H-pyrazolo[1,5-a]pyridin-3-yl]-1H-pyrazolo[3,4-b]pyridine]
2 nM | 1 nM | Cc1cc(-c2c(-c3ccc(F)cc3)nn3c2OCC(C)(C)C3)c2cn[nH]c2n1 [Example 213, 2-(4-Fluorophenyl)-6,6-dimethyl-3-(6-methyl-1H-pyrazolo[3,4-b]pyridin-4-yl)-6,7-dihydro-5H-pyrazolo[5,1-b][1,3]oxazine]
39 nM | 5 nM | Fc1ccc(-c2nn3c(c2-c2ccnc4[nH]ncc24)CC[C@@H]2C[C@@H]23)cc1 (stereo in doubt) [Example 340, (5a*R,6a*S)-2-(4-Fluorophenyl)-3-(1H-pyrazolo[3,4-b]pyridin-4-yl)-5,5a,6,6a-tetrahydro-4H-cyclopropa[e]pyrazolo[1,5-a]pyridine]
11 nM | 3 nM | CC(C)C(=O)Nc1cc(-c2c(-c3ccc(F)cn3)nn3c2COC(C)(C)C3)ccn1 [Example 132, N-(4-(2-(5-Fluoropyridin-2-yl)-6,6-dimethyl-6,7-dihydro-4H-pyrazolo[5,1-c][1,4]oxazin-3-yl)pyridin-2-yl)isobutyramide]
15 nM | 3 nM | Cc1cc(-c2c(-c3ccc(F)cn3)nn3c2CO[C@](C)(C(F)(F)F)C3)c2cn[nH]c2n1 (single isomer, unassigned) [Example 179, (*S)-2-(5-Fluoropyridin-2-yl)-6-methyl-3-(6-methyl-1H-pyrazolo[3,4-b]pyridin-4-yl)-6-(trifluoromethyl)-6,7-dihydro-4H-pyrazolo[5,1-c][1,4]oxazine]
> 10000 nM | 450 nM | CC1(C)Cn2nc(-c3ccc(F)cn3)c(-c3ccnc4cn[nH]c34)c2CO1 [Example 139, 2-(5-Fluoropyridin-2-yl)-6,6-dimethyl-3-(1H-pyrazolo[4,3-b]pyridin-7-yl)-6,7-dihydro-4H-pyrazolo[5,1-c][1,4]oxazine]
38 nM | 3 nM | Cc1cc(-c2c(-c3ccc(F)cn3)nn3c2OCC(C)C3)c2cn[nH]c2n1 (stereo not shown) [Example 197, 2-(5-Fluoropyridin-2-yl)-6-methyl-3-(6-methyl-1H-pyrazolo[3,4-b]pyridin-4-yl)-6,7-dihydro-5H-pyrazolo[5,1-b][1,3]oxazine]
482 nM | 54 nM | Fc1cc(-c2nn3c(c2-c2ccnc4[nH]ncc24)COCC3)ccc1Cl [Example 72, 2-(4-Chloro-3-fluoro-phenyl)-3-(1H-pyrazolo[3,4-b]pyridin-4-yl)-6,7-dihydro-4H-pyrazolo[5,1-c][1,4]oxazine]
43 nM | 6 nM | Cc1cc(-c2c(-c3ccc(F)cc3)nn3c2[C@H]2C[C@H]2C3)c2cn[nH]c2n1 (single isomer, unassigned) [Example 277, (3b*S,4a*R)-2-(4-Fluorophenyl)-3-(6-methyl-1H-pyrazolo[3,4-b]pyridin-4-yl)-3b,4,4a,5-tetrahydrocyclopropa[3,4]pyrrolo[1,2-b]pyrazole]
20 nM | 3 nM | Cc1nc(-c2c(-c3ccc(F)cc3)nn3c2COC(C)(C(F)(F)F)C3)c2cn[nH]c2n1 (stereo not shown) [Example 422, 2-(4-Fluorophenyl)-6-methyl-3-(6-methyl-1H-pyrazolo[3,4-d]pyrimidin-4-yl)-6-(trifluoromethyl)-6,7-dihydro-4H-pyrazolo[5,1-c][1,4]oxazine]
19 nM | 4 nM | [2H]C([2H])([2H])[C@@]1(C(F)(F)F)Cn2nc(-c3ccc(F)cn3)c(-c3ccnc4[nH]nc(Cl)c34)c2CO1 (single isomer, unassigned) [Example 427, (*S)-3-(3-Chloro-1H-pyrazolo[3,4-b]pyridin-4-yl)-2-(5-fluoropyridin-2-yl)-6-(methyl-d3)-6-(trifluoromethyl)-6,7-dihydro-4H-pyrazolo[5,1-c][1,4]oxazine]
181 nM | 11 nM | Fc1ccc(-c2nn3c(c2-c2cc(C(F)F)nc4[nH]ncc24)CCC3)nc1 [Example 222, 6-(Difluoromethyl)-4-[2-(5-fluoro-2-pyridyl)-5,6-dihydro-4H-pyrrolo[1,2-b]pyrazol-3-yl]-1H-pyrazolo[3,4-b]pyridine]
